Test results from ChEMBL document CHEMBL5154718, “Synthesis, biological evaluation, and molecular modeling simulations of new heterocyclic hybrids as multi-targeted anti-Alzheimer's agents” (Eur J Med Chem, 2022).
Calls of active or inactive are those of the source. The calls are words filed in the database; no cut-off is given here.

Key:
[1] = molecular target: T1, Amyloid-beta precursor protein (Homo sapiens, UniProt P05067); assay: Inhibition of amyloid beta (1 to 42 ) (unknown origin) self aggregation measured after 3 hrs by ThT fluorescence assay
[2] = molecular target: T1, Amyloid-beta precursor protein; assay: Inhibition of amyloid beta (1 to 42 ) (unknown origin) self aggregation at 25 uM measured after 3 hrs by ThT fluorescence assay relative to control
Cholinesterase [3] = molecular target: T2, Cholinesterase (Homo sapiens, UniProt P06276)
Description: Inhibition of C-terminal 6His-tagged human recombinant BuChE (29 to 602 residues) using butyrylthiocholine iodide as substrate preincubated for 5 mins followed by substrate addition by Ellman's method

Acetylcholinesterase [4] = molecular target: T3, Acetylcholinesterase (Homo sapiens, UniProt P22303)
Description: Inhibition of C-terminal 6His-tagged human recombinant AChE (32 to 614 residues) expressed in HEK293 cells using acetylthiocholine iodide as substrate preincubated for 5 mins followed by substrate addition by Ellman's method

AChE = format: toxicity, cell-based; conditions: human, probe acetylthiocholine iodide; read-out: Ratio IC50
[5] = Metal chelating activity assessed as Cu2+-compound complex formation by measuring bathochromic shift at 30 to 60 uM by UV-visible spectrophotometry; conditions: dose 30-60 µM
[6] = Metal chelating activity assessed as Fe2+-compound complex formation by measuring hyperchromic shift at 30 to 60 uM by UV-visible spectrophotometry; conditions: dose 30-60 µM
[7] = Metal chelating activity assessed as Zn2+-compound complex formation by measuring hyperchromic shift at 30 to 60 uM by UV-visible spectrophotometry; conditions: dose 30-60 µM
[8] = Metal chelating activity assessed as Cu2+-compound complex formation by measuring hyperchromic shift at 30 to 60 uM by UV-visible spectrophotometry; conditions: dose 30-60 µM
[9] = Metal chelating activity assessed as Fe2+-compound complex formation by measuring bathochromic shift at 30 to 60 uM by UV-visible spectrophotometry; conditions: dose 30-60 µM
[10] = Metal chelating activity assessed as Zn2+-compound complex formation by measuring bathochromic shift at 30 to 60 uM by UV-visible spectrophotometry; conditions: dose 30-60 µM
animal or person = format: functional; conditions: Rattus norvegicus, Sprague-Dawley, Brain, route ip, time 1 hrs
in vivo = conditions: Sprague-Dawley, rat, ip
Description: Toxicity in Sprague-Dawley rat assessed as median lethal dose administered intraperitoneally as single dose

in vitro = conditions: human, HepG2 cells
Description: Cytotoxicity against human HepG2 cells assessed as cell growth inhibition incubated for 72 hrs by MTT assay

[11] = Metal chelating activity assessed as Zn2+-compound complex formation by measuring hypochromic shift at 30 to 60 uM by UV-visible spectrophotometry; conditions: dose 30-60 µM
Acetylcholinesterase [12] = molecular target: T3, Acetylcholinesterase; assay: Inhibition of human recombinant AChE using acetylthiocholine as substrate preincubated for 5 mins followed by substrate addition by Ellman's method
Cholinesterase [13] = molecular target: T2, Cholinesterase; assay: Inhibition of human plasma BuChE using butyrylthiocholine as substrate preincubated for 5 mins followed by substrate addition by Ellman's method; format: cell-free
[14] = Toxicity in Sprague-Dawley rat assessed as mortality up to 120 mg/kg, ip administered as single dose measured after 24 hrs; format: organism-based; conditions: in vivo

T2 sequence (P06276 whole entry): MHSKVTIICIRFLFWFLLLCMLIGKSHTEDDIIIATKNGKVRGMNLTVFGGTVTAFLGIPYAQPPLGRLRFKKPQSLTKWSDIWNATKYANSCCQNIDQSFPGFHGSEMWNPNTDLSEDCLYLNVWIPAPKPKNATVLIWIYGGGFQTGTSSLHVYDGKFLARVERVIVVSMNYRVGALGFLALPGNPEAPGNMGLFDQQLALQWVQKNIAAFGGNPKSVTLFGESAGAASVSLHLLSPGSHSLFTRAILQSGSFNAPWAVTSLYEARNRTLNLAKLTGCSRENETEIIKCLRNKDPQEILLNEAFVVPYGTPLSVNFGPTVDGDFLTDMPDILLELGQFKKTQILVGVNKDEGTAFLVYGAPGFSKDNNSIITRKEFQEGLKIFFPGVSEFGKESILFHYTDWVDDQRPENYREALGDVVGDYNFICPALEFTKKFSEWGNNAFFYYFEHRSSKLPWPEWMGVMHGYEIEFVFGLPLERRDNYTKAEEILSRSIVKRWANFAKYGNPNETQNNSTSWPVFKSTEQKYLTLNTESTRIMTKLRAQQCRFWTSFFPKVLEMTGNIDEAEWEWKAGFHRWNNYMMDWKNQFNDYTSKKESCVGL
T3 sequence (P22303 whole entry): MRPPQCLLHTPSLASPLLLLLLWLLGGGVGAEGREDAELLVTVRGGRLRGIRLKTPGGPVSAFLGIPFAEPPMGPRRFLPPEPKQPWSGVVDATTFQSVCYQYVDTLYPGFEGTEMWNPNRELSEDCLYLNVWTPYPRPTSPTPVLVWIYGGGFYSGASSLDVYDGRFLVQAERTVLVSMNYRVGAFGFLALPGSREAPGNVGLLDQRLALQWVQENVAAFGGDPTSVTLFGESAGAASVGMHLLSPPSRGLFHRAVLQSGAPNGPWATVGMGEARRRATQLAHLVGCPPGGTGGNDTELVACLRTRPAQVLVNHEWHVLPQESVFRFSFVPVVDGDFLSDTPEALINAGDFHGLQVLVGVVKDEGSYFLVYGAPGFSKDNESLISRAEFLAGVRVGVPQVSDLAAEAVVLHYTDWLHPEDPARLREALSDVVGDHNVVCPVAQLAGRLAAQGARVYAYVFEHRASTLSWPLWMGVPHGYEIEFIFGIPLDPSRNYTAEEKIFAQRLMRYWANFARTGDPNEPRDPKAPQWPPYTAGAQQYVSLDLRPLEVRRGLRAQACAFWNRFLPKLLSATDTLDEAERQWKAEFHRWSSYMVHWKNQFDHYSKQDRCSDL
T1 sequence (P05067 whole entry): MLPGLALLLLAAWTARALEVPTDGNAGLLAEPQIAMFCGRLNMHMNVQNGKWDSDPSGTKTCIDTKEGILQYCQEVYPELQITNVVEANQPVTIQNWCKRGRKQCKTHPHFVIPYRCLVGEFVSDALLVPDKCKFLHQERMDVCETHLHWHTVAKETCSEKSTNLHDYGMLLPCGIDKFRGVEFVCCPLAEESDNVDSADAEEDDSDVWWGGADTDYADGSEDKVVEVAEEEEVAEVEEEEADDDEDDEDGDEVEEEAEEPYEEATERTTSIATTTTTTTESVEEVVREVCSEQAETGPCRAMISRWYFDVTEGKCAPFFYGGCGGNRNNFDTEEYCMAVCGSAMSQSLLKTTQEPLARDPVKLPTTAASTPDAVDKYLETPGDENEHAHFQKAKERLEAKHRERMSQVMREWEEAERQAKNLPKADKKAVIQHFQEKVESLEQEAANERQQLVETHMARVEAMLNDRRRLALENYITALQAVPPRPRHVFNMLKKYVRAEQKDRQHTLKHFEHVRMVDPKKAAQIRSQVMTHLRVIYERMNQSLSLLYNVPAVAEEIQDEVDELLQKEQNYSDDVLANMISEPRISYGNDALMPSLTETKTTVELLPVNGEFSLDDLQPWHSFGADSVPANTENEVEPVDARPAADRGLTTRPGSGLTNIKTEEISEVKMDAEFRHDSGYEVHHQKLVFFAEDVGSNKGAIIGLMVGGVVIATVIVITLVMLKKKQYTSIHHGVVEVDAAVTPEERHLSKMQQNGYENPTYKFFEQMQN

Structure (SMILES)	IC50 [1] [nM]	inhibition [2] [%]	IC50 (Cholinesterase [3]) [nM]	IC50 (Acetylcholinesterase [4]) [nM]	further results
CN1CCN(c2c3c(nc4ccc([N+](=O)[O-])cc24)CCCC3)CC1	4490	66.4	166	245	
Cc1ccc2nc3c(c(NCCN4CCN(C)CC4)c2c1)CCCC3				974	
Cc1ccc2nc3c(c(NCCN4CCOCC4)c2c1)CCCC3	15000	54.6	3130	131	selectivity ratio at 72 h (AChE): 72.8; Activity [5]: Active; Activity [6]: Active; Activity [7]: Active; Activity [8]: Active; Activity [9]: Active; Activity [10]: Active; inhibition in vivo at 10 mg/kg (animal or person): 35%; LD50 (in vivo): 96.5 mg/kg; IC50 at 72 h (in vitro): 9530 nM
O=C(CN1CCN(Cc2ccccc2)CC1)Nc1n[nH]c2ncccc12	5670	65	2810	301	
Cc1ccc2nc3c(c(NCCO)c2c1)CCCC3	2950	69.8	840	180	
O=[N+]([O-])c1ccc2nc3c(c(N4CCOCC4)c2c1)CCCC3				1220	
O=C(CCN1CCCCC1)Nc1n[nH]c2ncccc12				658	
O=[N+]([O-])c1ccc2nc3c(c(Nc4[nH]nc5ncccc45)c2c1)CCCC3	777	81.5	429	299	selectivity ratio at 72 h (AChE): 105; Activity [5]: Active; Activity [6]: Active; Activity [7]: Active; Activity [8]: Active; IC50 at 72 h (in vitro): 31300 nM
O=C(CCN1CCN(c2ccccc2)CC1)Nc1n[nH]c2ncccc12	1980	65.5	782	230	
CC(=O)Nc1ccc2nc3c(c(N4CCOCC4)c2c1)CCCC3				1110	
Nc1nn(-c2c3c(nc4ccc([N+](=O)[O-])cc24)CCCC3)c2ncccc12	31800	48	5220	56	selectivity ratio at 72 h (AChE): 800; Activity [6]: Active; Activity [11]: Active; IC50 at 72 h (in vitro): 44800 nM
c1ccc2c(NCCN3CCOCC3)c3c(nc2c1)CCCC3					IC50 (Acetylcholinesterase [12]): 93 nM; IC50 (Cholinesterase [13]): 16 nM
Cc1ccc2nc3c(c(N4CCN(c5c6c(nc7ccc(C)cc57)CCCC6)CC4)c2c1)CCCC3				521	
Cc1ccc2nc3c(c(N4CCOCC4)c2c1)CCCC3				1780	
O=C(CN1CCN(c2ccccc2)CC1)Nc1n[nH]c2ncccc12				1950	
O=C(CCN1CCN(Cc2ccccc2)CC1)Nc1n[nH]c2ncccc12	13300	55.5	3570	34	selectivity ratio at 72 h (AChE): 735; Activity [5]: Active; Activity [6]: Active; Activity [7]: Active; inhibition in vivo at 10 mg/kg (animal or person): 35%; Activity [14]: Non-Toxic; IC50 at 72 h (in vitro): 25000 nM
CN1CCN(CCC(=O)Nc2n[nH]c3ncccc23)CC1				844	
Cc1ccc2nc3c(c(N4CCCCC4)c2c1)CCCC3	6700	61.9	1990	118	selectivity ratio at 72 h (AChE): 321; Activity [5]: Active; Activity [6]: Active; Activity [7]: Active; Activity [8]: Active; Activity [9]: Active; Activity [10]: Active; inhibition in vivo at 10 mg/kg (animal or person): 35%; LD50 (in vivo): 42 mg/kg; IC50 at 72 h (in vitro): 37900 nM
O=C(Cn1nc2ncccc2c1NC(=O)Cn1nc2ncccc2c1NC(=O)CN1CCN(Cc2ccccc2)CC1)Nc1[nH]nc2ncccc12				18000	
O=[N+]([O-])c1ccc2nc3c(c(N4CCCCC4)c2c1)CCCC3				1890	
Cc1ccc2nc3c(c(Nc4[nH]nc5ncccc45)c2c1)CCCC3				811	
COc1cc2c(cc1OC)C(=O)C(CC1CCN(Cc3ccccc3)CC1)C2 (centres undefined) [DONEPEZIL]					inhibition in vivo at 10 mg/kg (animal or person): 46.5%; LD50 (in vivo): 32.5 mg/kg
Cc1ccc2nc3c(c(NCCN4CCN(Cc5ccccc5)CC4)c2c1)CCCC3				6380	
Cc1ccc2nc3c(c(NCCCl)c2c1)CCCC3				763	
Cc1ccc2nc3c(c(N4CCN(C)CC4)c2c1)CCCC3				440	
Cc1ccc2nc3c(c(NCCN4CCCCC4)c2c1)CCCC3				2540	
COc1cc2nc3c(c(N4CCOCC4)c2cc1OC)CCCC3	1230	78.6	767	62	selectivity ratio at 72 h (AChE): 102; Activity [5]: Active; Activity [6]: Active; Activity [7]: Active; Activity [8]: Active; Activity [9]: Active; inhibition in vivo at 10 mg/kg (animal or person): 35%; Activity [11]: Active; Activity [14]: Non-Toxic; IC50 at 72 h (in vitro): 6300 nM
O=C(CCN1CCOCC1)Nc1n[nH]c2ncccc12	2130	71.8	473	275	
CC(=O)Nc1ccc2nc3c(c(N4CCCCC4)c2c1)CCCC3	1300	77.3	459	301	
